Experiments:
JAK1 = JAK1 (Homo sapiens (Human), UniProt P23458); experiment: Jak Biochemical HTRF Assay, JAK1; conditions: HTRF biochemical assay, GST-tagged catalytic domain; top concentration tested […]; read-out: JAK1 IC50
Text: (§1) Jak Biochemical HTRF Assay Protocol
(§2) Subsequent reagent additions employed an Agilent Bravo.

JAK2 = JAK2 (Homo sapiens (Human), UniProt O60674); experiment: Jak Biochemical HTRF Assay, JAK2; conditions: HTRF biochemical assay, GST-tagged catalytic domain; top concentration tested […]
JAK2, sequence (O60674 849-1124): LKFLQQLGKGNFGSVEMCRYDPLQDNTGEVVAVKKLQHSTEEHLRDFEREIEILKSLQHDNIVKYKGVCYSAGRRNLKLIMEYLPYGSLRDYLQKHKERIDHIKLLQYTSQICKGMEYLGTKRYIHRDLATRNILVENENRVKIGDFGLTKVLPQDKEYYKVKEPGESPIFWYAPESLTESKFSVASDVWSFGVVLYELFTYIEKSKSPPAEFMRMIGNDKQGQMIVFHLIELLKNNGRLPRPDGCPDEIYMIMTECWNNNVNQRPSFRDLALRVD
Text: as §1, §2

JAK1, sequence (P23458 875-1153): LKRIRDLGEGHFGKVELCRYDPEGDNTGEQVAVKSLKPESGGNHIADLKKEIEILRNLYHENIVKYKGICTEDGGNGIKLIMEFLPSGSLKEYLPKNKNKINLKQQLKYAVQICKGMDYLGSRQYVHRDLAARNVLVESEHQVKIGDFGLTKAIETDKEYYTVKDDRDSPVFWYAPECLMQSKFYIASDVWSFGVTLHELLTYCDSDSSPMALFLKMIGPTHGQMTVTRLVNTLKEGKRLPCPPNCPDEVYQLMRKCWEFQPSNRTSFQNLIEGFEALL

SMILES	IC50 (JAK1) [nM]	IC50 (JAK2) [nM]
N#CCC1(n2cc(C(N)=O)c(Nc3ccc(S(=O)(=O)C(F)F)cc3)n2)CCC(N2CCC(O)CC2)CC1 (stereo not drawn) [Example 40-67, Cis or trans 1-[1-(cyanomethyl)-4-(4-hydroxypiperidin-1-yl)cyclohexyl]-3-({4-[(difluoromethyl)sulfonyl]phenyl}amino)-1H-pyrazole-4-carboxamide]	37	773
N#CCC1(n2cc(C(N)=O)c(Nc3ccccc3)n2)CCN(C(=O)c2ccccc2Cl)CC1 [Example 34-20, 1-{1-[(2-chlorophenyl)carbonyl]-4-(cyanomethyl)piperidin-4-yl}-3-(phenylamino)-1H-pyrazole-4-carboxamide]	13	115
COC(=O)c1ccc(Nc2nn(C3(CC#N)CCN(C(=O)OC(C)(C)C)CC3)cc2C(N)=O)cc1 [Example 9-2, tert-butyl 4-(4-carbamoyl-3-{[4-(methoxycarbonyl)phenyl]amino}-1H-pyrazol-1-yl)-4-(cyanomethyl)piperidine-1-carboxylate]	0.3	9
Cn1c(C(=O)N2CCC(CC#N)(n3cc(C(N)=O)c(Nc4ccccc4)n3)CC2)cc2ccccc21 [Example 34-26, 1-{4-(cyanomethyl)-1-[(1-methyl-1H-indol-2-yl)carbonyl]piperidin-4-yl}-3-(phenylamino)-1H-pyrazole-4-carboxamide]	10	238
N#CCC1(n2cc(C(N)=O)c(Nc3ccccc3)n2)CCN(Cc2c(F)ccc(F)c2F)CC1 [Example 21-26, 1-[4-(cyanomethyl)-1-(2,3,6-trifluorobenzyl)piperidin-4-yl]-3-(phenylamino)-1H-pyrazole-4-carboxamide]	0.7	11
N#CCC1(n2cc(C(N)=O)c(Nc3ccnc(F)c3)n2)CCN(C(=O)OC2CCOCC2)CC1 [Example 30-17, tetrahydro-2H-pyran-4-yl 4-{4-carbamoyl-3-[(2-fluoropyridin-4-yl)amino]-1H-pyrazol-1-yl}-4-(cyanomethyl)piperidine-1-carboxylate]	3	96
CC(=O)Nc1ccc(CN2CCC(CC#N)(n3cc(C(N)=O)c(Nc4ccccc4)n3)CC2)cc1 [Example 21-12, 1-{1-[4-(acetylamino)benzyl]-4-(cyanomethyl)piperidin-4-yl}-3-(phenylamino)-1H-pyrazole-4-carboxamide]	7	128
Cc1cc(C)cc(NC(=O)N2CC(CC#N)(n3cc(C(N)=O)c(Nc4ccccc4)n3)C2)c1 [Example 38-20, 1-{3-(cyanomethyl)-1-[(3,5-dimethylphenyl)carbamoyl]azetidin-3-yl}-3-(phenylamino)-1H-pyrazole-4-carboxamide]	19	326
CC(C)(C)OC(=O)N1CCC(CC#N)(n2cc(C(N)=O)c(Nc3ccc(C(C)(C)O)cc3)n2)CC1 [Example 9-8, tert-butyl 4-(4-carbamoyl-3-(4-(2-hydroxypropan-2-yl)phenylamino)-1H-pyrazol-1-yl)-4-(cyanomethyl)piperidine-1-carboxylate]	0.3	3
N#CCC1(n2cc(C(N)=O)c(Nc3ccccc3)n2)CCN(C(=O)CN2CCCC2=O)CC1 [Example 34-15, 1-{4-(cyanomethyl)-1-[(2-oxopyrrolidin-1-yl)acetyl]piperidin-4-yl}-3-(phenylamino)-1H-pyrazole-4-carboxamide]	5	194
COC(=O)c1ccccc1CN1CCC(CC#N)(n2cc(C(N)=O)c(Nc3ccccc3)n2)CC1 [Example 21-29, methyl 2-({4-[4-carbamoyl-3-(phenylamino)-1H-pyrazol-1-yl]-4-(cyanomethyl)piperidin-1-yl}methyl)benzoate]	21	400
N#CCC1(n2cc(C(N)=O)c(Nc3ccnc(F)c3)n2)CCN(Cc2ccc(O)cc2)CC1 [Example 22-60, 1-[4-(cyanomethyl)-1-(4-hydroxybenzyl)piperidin-4-yl]-3-[(2-fluoropyridin-4-yl)amino]-1H-pyrazole-4-carboxamide]	0.1	6
CC(O)(C(=O)N1CCC(CC#N)(n2cc(C(N)=O)c(Nc3ccnc(F)c3)n2)CC1)C(F)F (stereo not shown) [Example 34-61, 1-[4-(cyanomethyl)-1-(3,3-difluoro-2-hydroxy-2-methylpropanoyl)piperidin-4-yl]-3-[(2-fluoropyridin-4-yl)amino]-1H-pyrazole-4-carboxamide]	2	38
N#CCC1(n2cc(C(N)=O)c(Nc3ccccc3)n2)CN(C(=O)OCc2cccnc2)C1 [Example 30-65, pyridin-3-ylmethyl 3-[4-carbamoyl-3-(phenylamino)-1H-pyrazol-1-yl]-3-(cyanomethyl)azetidine-1-carboxylate]	12	271
N#CCC1(n2cc(C(N)=O)c(Nc3ccc(F)cc3)n2)CCC(NCCF)CC1 (stereo not drawn) [Example 40-79, Cis or trans 1-{1-(cyanomethyl)-4-[(2-fluoroethyl)amino]cyclohexyl}-3-[(4-fluorophenyl)amino]-1H-pyrazole-4-carboxamide]	8	133
CCOc1cccc(N2CCC(CC#N)(n3cc(C(N)=O)c(Nc4ccc(F)cc4)n3)CC2)n1 [Example 3-16, 1-[4-(cyanomethyl)-1-(6-ethoxypyridin-2-yl)piperidin-4-yl]-3-[(4-fluorophenyl)amino]-1H-pyrazole-4-carboxamide]	45	861
N#CCC1(n2cc(C(N)=O)c(Nc3ccccc3)n2)CN(C(=O)Nc2ccc(C#N)cc2)C1 [Example 38-15, 1-{3-(cyanomethyl)-1-[(4-cyanophenyl)carbamoyl]azetidin-3-yl}-3-(phenylamino)-1H-pyrazole-4-carboxamide]	0.9	21
N#CCC1(n2cc(C(N)=O)c(Nc3ccnc(F)c3)n2)CCC(NCc2cccc(C#N)c2)CC1 (stereo not drawn) [Example 41-14, Cis or trans 1-{4-[(3-cyanobenzyl)amino]-1-(cyanomethyl)cyclohexyl}-3-[(2-fluoropyridin-4-yl)amino]-1H-pyrazole-4-carboxamide]	45	1420
N#CCC1(n2cc(C(N)=O)c(Nc3ccnc(F)c3)n2)CCC(NCc2ccc(Cl)cc2)CC1 (stereo not drawn) [Example 41-15, Cis or trans 1-{4-[(4-chlorobenzyl)amino]-1-(cyanomethyl)cyclohexyl}-3-[(2-fluoropyridin-4-yl)amino]-1H-pyrazole-4-carboxamide]	0.1	2
N#CC[C@]1(n2cc(C(N)=O)c(Nc3ccnc(F)c3)n2)CC[C@H](NCc2ccc(F)cc2F)CC1 [Example 41-1, Trans 1-(1-(cyanomethyl)-4-((2,4-difluorobenzyl)amino)cyclohexyl)-3-((2-fluoropyridin-4-yl)amino)-1H-pyrazole-4-carboxamide]	8	218
CS(=O)(=O)N1CCC(CC#N)(n2cc(C(N)=O)c(Nc3ccccc3)n2)CC1 [Example 37-2, 1-[4-(cyanomethyl)-1-(methylsulfonyl)piperidin-4-yl]-3-(phenylamino)-1H-pyrazole-4-carboxamide]	0.4	3
N#CCC1(n2cc(C(N)=O)c(Nc3ccc(F)cc3)n2)CCC(Nc2cccnc2)CC1 (stereo not drawn) [Example 40-75, Cis or trans 1-[1-(cyanomethyl)-4-(pyridin-3-ylamino)cyclohexyl]-3-[(4-fluorophenyl)amino]-1H-pyrazole-4-carboxamide]	0.2	7
CCOC(=O)COC(=O)N1CC(CC#N)(n2cc(C(N)=O)c(Nc3ccccc3)n2)C1 [Example 30-60, 2-ethoxy-2-oxoethyl 3-[4-carbamoyl-3-(phenylamino)-1H-pyrazol-1-yl]-3-(cyanomethyl)azetidine-1-carboxylate]	39	484
CC(C)OC(=O)c1ccc(Nc2nn(C3(CC#N)CCN(C(=O)OC(C)(C)C)CC3)cc2C(N)=O)cc1 [Example 4-2, tert-butyl 4-[4-carbamoyl-3-({4-[(1-methylethoxy)carbonyl]phenyl}amino)-1H-pyrazol-1-yl]-4-(cyanomethyl)piperidine-1-carboxylate]	2	20
CC(C)COC(=O)N1CCC(CC#N)(n2cc(C(N)=O)c(Nc3ccccc3)n2)CC1 [Example 30-28, 2-methylpropyl 4-[4-carbamoyl-3-(phenylamino)-1H-pyrazol-1-yl]-4-(cyanomethyl)piperidine-1-carboxylate]	3	102
N#CCC1(n2cc(C(N)=O)c(Nc3ccccc3)n2)CCN(Cc2cccc3ccccc23)CC1 [Example 21-8, 1-[4-(cyanomethyl)-1-(naphthalene-1-ylmethyl)piperidin-4-yl]-3-(phenylamino)-1H-pyrazole-4-carboxamide]	89	1300
CC(C)(C)OC(=O)N1CC[C@](CC#N)(n2cc(C(N)=O)c(Nc3ccc(F)cc3)n2)[C@H](F)C1 (racemic) [Example 6-4, tert-butyl (3S,4S and 3R,4R)-4-{4-carbamoyl-3-[(4-fluorophenyl)amino]-1H-pyrazol-1-yl}-4-(cyanomethyl)-3-fluoropiperidine-1-carboxylate]	0.05	0.2
Cc1ccc(N2CCC(CC#N)(n3cc(C(N)=O)c(Nc4ccc(F)cc4)n3)CC2)cc1 [Example 3-39, 1-[4-(cyanomethyl)-1-(4-methylphenyl)piperidin-4-yl]-3-[(4-fluorophenyl)amino]-1H-pyrazole-4-carboxamide]	4	117
Cc1ncccc1N1CCC(CC#N)(n2cc(C(N)=O)c(Nc3ccc(F)cc3)n2)CC1 [Example 3-29, 1-[4-(cyanomethyl)-1-(2-methylpyridin-3-yl)piperidin-4-yl]-3-[(4-fluorophenyl)amino]-1H-pyrazole-4-carboxamide]	9	209

From patent US9328099B2, “Cyanomethylpyrazole carboxamides as janus kinase inhibitors” (Merck Sharp & Dohme Corp., priority 2011, dated 2016)
